Activity data for two compounds are collected here from ChEMBL document CHEMBL1139428, “Cocrystal structures of primed side-extending alpha-ketoamide inhibitors reveal novel calpain-inhibitor aromatic interactions” (J Med Chem, 2008).

The target in assay [1] is T1, Calpain-1 catalytic subunit (Homo sapiens) (UniProt P07384).
T1 sequence (whole entry): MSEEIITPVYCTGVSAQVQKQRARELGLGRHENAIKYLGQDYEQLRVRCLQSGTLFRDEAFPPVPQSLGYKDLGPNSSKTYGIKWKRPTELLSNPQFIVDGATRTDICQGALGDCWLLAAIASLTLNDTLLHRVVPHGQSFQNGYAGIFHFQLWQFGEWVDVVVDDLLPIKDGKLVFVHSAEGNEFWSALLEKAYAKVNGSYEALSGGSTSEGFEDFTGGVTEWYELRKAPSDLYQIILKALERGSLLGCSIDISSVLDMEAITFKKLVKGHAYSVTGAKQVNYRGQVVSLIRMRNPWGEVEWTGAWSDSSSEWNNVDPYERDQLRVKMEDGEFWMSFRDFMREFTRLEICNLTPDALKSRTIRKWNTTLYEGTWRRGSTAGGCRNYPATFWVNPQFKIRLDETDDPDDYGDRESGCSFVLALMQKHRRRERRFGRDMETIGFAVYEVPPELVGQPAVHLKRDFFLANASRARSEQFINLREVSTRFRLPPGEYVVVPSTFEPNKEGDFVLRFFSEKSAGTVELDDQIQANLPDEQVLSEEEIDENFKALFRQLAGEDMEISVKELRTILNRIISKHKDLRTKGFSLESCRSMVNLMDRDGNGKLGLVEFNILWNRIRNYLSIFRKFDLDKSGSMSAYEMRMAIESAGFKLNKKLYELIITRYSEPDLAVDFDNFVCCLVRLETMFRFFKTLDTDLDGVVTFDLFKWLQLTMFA
Put plainly: Inhibition of calpain 1 protease core assessed as attenuation of substrate cleavage at 50 uM by FRET.

Assay [2] deals with T2, Calpain-2 catalytic subunit (Homo sapiens) (UniProt P17655).
T2 sequence (whole entry): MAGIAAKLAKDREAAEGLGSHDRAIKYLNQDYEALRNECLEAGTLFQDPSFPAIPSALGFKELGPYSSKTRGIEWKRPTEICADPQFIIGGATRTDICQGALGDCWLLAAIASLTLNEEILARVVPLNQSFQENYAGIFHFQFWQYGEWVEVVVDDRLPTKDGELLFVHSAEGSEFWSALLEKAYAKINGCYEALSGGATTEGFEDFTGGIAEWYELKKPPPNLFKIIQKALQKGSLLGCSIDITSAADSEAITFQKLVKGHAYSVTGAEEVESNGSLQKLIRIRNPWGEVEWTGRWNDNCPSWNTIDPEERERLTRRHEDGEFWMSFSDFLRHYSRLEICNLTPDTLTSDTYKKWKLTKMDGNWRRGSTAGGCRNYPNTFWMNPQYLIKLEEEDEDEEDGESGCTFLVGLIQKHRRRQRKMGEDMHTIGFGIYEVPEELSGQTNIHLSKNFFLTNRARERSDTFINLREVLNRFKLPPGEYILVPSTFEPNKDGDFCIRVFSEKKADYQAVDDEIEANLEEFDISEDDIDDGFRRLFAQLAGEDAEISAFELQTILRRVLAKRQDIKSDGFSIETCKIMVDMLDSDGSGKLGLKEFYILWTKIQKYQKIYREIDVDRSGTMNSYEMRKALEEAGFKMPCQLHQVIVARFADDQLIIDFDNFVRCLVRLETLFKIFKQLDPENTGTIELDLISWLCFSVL
Briefly: Inhibition of m-calpain assessed as attenuation of substrate cleavage at 1 uM by FRET.

Calls of active or inactive are those of the source. No cut-off for these calls is given here.

Regarding `CC[C@H](NC(=O)[C@H](CC(C)C)NC(=O)OCc1ccccc1)C(=O)C(=O)NCCCn1cnc2c(N)ncnc21`, the outcome in assay [1] and in assay [2] was Active.
On to `CC[C@H](NC(=O)[C@H](CC(C)C)NC(=O)OCc1ccccc1)C(=O)C(=O)NCCCN1CCN(C)CC1`, for which the result in assay [1] and in assay [2] was Active.
